Read-outs that look alike come from different tables or passages of the source. Square brackets hold non-standard residues; d marks the D form. Peptide text beside a SMILES is read from it. αMeY = C[C@](N)(Cc1ccc(O)cc1)C(=O)O; αMeF = C[C@](N)(Cc1ccccc1)C(=O)O; Cha = N[C@@H](CC1CCCCC1)C(=O)O; Aib = CC(C)(N)C(=O)O
Experiments:
Type in all cases: cell-based
human GLP-1R = target: T1, human GLP-1R (Homo sapiens, UniProt P43220); experiment: Agonist activity against human GLP-1R, CRE-luciferase reporter assay in hGLP-1R/CRE-luc/CHO-K1 cells
T1 construct: expressed in transfected cells; host or cells: CHO-K1, plasmids hGLP-1/pIRESneo3 and Cre-luc(Zeo)
T1 sequence (P43220 24-463): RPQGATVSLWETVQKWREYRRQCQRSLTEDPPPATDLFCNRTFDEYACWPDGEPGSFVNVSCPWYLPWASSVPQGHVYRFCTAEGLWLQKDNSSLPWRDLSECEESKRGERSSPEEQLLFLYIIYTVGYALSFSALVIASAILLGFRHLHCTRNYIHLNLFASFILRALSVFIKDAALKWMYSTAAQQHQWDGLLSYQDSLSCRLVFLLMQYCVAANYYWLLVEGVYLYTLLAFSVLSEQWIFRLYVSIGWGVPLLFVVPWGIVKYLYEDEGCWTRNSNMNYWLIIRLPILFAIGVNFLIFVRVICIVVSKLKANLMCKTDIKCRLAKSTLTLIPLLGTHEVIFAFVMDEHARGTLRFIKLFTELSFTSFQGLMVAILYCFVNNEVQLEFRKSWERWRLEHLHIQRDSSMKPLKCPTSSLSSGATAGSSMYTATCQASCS
Description: (§1) Evaluation of agonist activity against human GIPR, human GLP-1R and human glucagon R using rise in intracellular cAMP concentration as index
Four copies of the cAMP response sequence and the Zeocin resistance gene were introduced to pGL3(R2.2)-Basic Vector (Promega) to construct Cre-luc(Zeo) reporter plasmid.
The human GLP-1R gene having a sequence identical to the sequence of GenBank Accession No. NM_002062 was cloned into pIRESneo3 vector to prepare hGLP-1/pIRESneo3.
The Cre-luc(Zeo) obtained in (3) and the plasmid hGLP-1/pIRESneo3 obtained in (5) were introduced to CHO-K1 cells to obtain transformants. Next, a cell line induced to express luciferase, i.e., hGLP-1R/CRE-luc/CHO-K1 cells, were selected from the obtained transformants by the addition of GLP-1.
(§2) The hGIPR/CRE-LUC/CHO-K1 cells were inoculated at a cell density of 25 μL/well (5×10^4 cells/well) to a 384-well white plate (Corning), and cultured overnight in Ham F12 medium containing 10% fetal bovine serum, 100 U/mL penicillin and 100 μg/mL streptomycin in a CO2 incubator of 37° C. A medium containing a test compound was added at a concentration of 5 μL/well to the cells, and the resultant cells were incubated for 4 hours in a CO2 incubator of 37° C. to give the final concentration of 1 μM. PicaGene LT7.5 (Toyo Ink Co., Ltd.) was added thereto at a concentration of 30 μL/well, and the mixture was shaken with light shielded. After 30 minutes, the luciferase activity was measured using a plate reader Envision (PerkinElmer). The luciferase activity in the presence of 10 nM GIP was defined as 100%, and the luciferase activity from the addition of DMSO instead of the test compound was defined as 0%. The GIPR agonist activity was calculated with a rise in intracellular cAMP concentration as an index.
The GLP-1R agonist activity was assayed in the same way as above using the hGLP-1R/CRE-luc/CHO-K1 cells. The luciferase activity in the presence of 10 nM GLP-1 was defined as 100%, and the luciferase activity from the addition of DMSO instead of the test compound was defined as 0%. The GLP-1R agonist activity was calculated with a rise in intracellular cAMP concentration as an index.

human GIPR = target: T2, human GIPR (Homo sapiens, UniProt P48546); experiment: Agonist activity against human GIPR, CRE-luciferase reporter assay (rise in intracellular cAMP) in hGIPR/CRE-LUC/CHO-K1 cells
T2 construct: expressed in transfected cells; host or cells: CHO-K1 (CRE-LUC/CHO-K1), plasmid hGIPR/pMSRα-neo
T2 sequence (P48546 22-466): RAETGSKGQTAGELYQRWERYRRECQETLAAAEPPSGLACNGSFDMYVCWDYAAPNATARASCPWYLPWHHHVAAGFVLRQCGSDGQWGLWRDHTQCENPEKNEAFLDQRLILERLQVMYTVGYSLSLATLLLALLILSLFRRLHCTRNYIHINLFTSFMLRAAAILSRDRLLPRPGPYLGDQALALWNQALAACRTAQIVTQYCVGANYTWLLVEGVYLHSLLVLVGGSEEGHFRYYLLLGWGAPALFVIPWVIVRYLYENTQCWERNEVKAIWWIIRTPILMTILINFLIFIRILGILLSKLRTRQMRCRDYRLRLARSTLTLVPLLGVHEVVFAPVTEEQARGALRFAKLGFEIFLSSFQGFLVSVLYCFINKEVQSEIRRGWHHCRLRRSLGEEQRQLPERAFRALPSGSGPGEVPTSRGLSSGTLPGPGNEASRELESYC
Description: as §1
The human GIPR gene having a sequence identical to the sequence of GenBank Accession No. U39231 was cloned into pMSRα-neo vector to prepare hGIPR/pMSRα-neo.
(§3) The luciferase reporter gene having an upstream cAMP response sequence was introduced to CHO-K1 cells to construct CRE-LUC/CHO-K1 cells.
The plasmid hGIPR/pMSRα-neo obtained in (1) was introduced to the CRE-LUC/CHO-K1 cells obtained in (2) to obtain transformants. Next, a cell line induced to express luciferase, i.e., hGIPR/CRE-LUC/CHO-K1 cells, were selected from the obtained transformants by the addition of GIP.
as §2

human glucagon R = target: T3, human glucagon R (Homo sapiens, UniProt P47871); experiment: Agonist activity against human glucagon R, CRE-luciferase reporter assay in hGlucagonR/CRE-LUC/CHO-K1 cells
T3 construct: expressed in transfected cells; host or cells: CHO-K1 (CRE-LUC/CHO-K1), plasmid hGlucagonR/pMSRα-neo
T3 sequence (P47871 26-477): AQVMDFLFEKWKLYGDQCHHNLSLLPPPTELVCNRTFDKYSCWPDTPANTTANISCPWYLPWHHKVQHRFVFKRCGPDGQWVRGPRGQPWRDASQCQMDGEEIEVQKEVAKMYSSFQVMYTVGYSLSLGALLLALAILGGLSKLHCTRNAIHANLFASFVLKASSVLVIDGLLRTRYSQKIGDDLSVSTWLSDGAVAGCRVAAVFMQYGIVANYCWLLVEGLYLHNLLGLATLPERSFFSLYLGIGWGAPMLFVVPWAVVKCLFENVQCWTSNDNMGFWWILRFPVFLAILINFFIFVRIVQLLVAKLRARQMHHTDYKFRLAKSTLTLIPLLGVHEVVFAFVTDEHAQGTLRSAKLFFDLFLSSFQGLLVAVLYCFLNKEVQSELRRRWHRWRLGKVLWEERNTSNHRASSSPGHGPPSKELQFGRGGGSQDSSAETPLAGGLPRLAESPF
Description: as §1, §3
The human glucagon R gene having a sequence identical to the sequence of GenBank Accession No. NM_000160 was cloned into pMSRα-neo vector to prepare hGlucagonR/pMSRα-neo.
The plasmid hGlucagonR/pMSRα-neo obtained in (7) was introduced to the CRE-LUC/CHO-K1 cells obtained in (2) to obtain transformants. Next, a cell line induced to express luciferase, i.e., hGlucagonR/CRE-LUC/CHO-K1 cells, were selected from the obtained transformants by the addition of glucagon.
as §2
The glucagon R agonist activity was assayed in the same way as above using the hGlucagonR/CRE-LUC/CHO-K1 cells. The luciferase activity in the presence of 10 nM glucagon was defined as 100%, and the luciferase activity from the addition of DMSO instead of the test compound was defined as 0%. The glucagon agonist activity was calculated with a rise in intracellular cAMP concentration as an index.

Compound	EC50 (human GLP-1R)	EC50 (human GIPR)	EC50 (human glucagon R)	EC50 (human GLP-1R; hGLP-1R/CRE-luc/CHO-K1 cells, 4 hours incubation, 10 nM GLP-1 = 100%, read-out: Agonist activity (EC50) hGLP-1R)	EC50 (human GIPR; hGIPR/CRE-LUC/CHO-K1 cells, 4 hours incubation, 10 nM GIP = 100%, read-out: Agonist activity (EC50) hGIPR)	EC50 (human glucagon R; hGlucagonR/CRE-LUC/CHO-K1 cells, 4 hours incubation, 10 nM glucagon = 100%, read-out: Agonist activity (EC50) hGCGR)
CC(C)C[C@H](NC(=O)[C@H](CC(C)C)NC(=O)[C@H](Cc1c[nH]c2ccccc12)NC(=O)[C@H](CCCCN)NC(=O)[C@@H](NC(=O)[C@H](Cc1ccccc1)NC(=O)[C@H](CCC(=O)O)NC(=O)[C@H](C)NC(=O)[C@H](CCC(N)=O)NC(=O)[C@H](C)NC(=O)[C@H](CCC(N)=O)NC(=O)[C@H](CCCCN)NC(=O)[C@H](CC(=O)O)NC(=O)[C@H](CC(C)C)NC(=O)C(C)(C)NC(=O)[C@H](Cc1ccccc1)NC(=O)C(C)(C)NC(=O)[C@H](Cc1ccc(O)cc1)NC(=O)[C@H](CC(=O)O)NC(=O)[C@H](CO)NC(=O)[C@@H](NC(=O)[C@](C)(Cc1ccccc1)NC(=O)[C@@H](NC(=O)CNC(=O)[C@H](CCC(=O)O)NC(=O)C(C)(C)NC(=O)[C@@H](N)Cc1ccc(O)cc1)[C@@H](C)O)[C@@H](C)O)C(C)C)C(=O)N[C@@H](CCCCN)C(=O)NCC(=O)NCC(=O)N1CCC[C@H]1C(=O)N[C@@H](CO)C(=O)N[C@@H](CO)C(=O)NCC(=O)N[C@@H](C)C(=O)N1CCC[C@H]1C(=O)N1CCC[C@H]1C(=O)N1CCC[C@H]1C(=O)N[C@@H](CO)C(=O)N[C@@H](CCCCN)C(N)=O [Example 11] (H-Y[Aib]EGT[αMeF]TSDY[Aib]F[Aib]LDKQAQAEFVKWLLKGGPSSGAPPPSK-NH2)	0.022 nM	0.015 nM	> 1000 nM	–	–	–
CC[C@H](C)[C@H](NC(=O)C(C)(C)NC(=O)[C@H](Cc1ccc(O)cc1)NC(=O)[C@H](CC(=O)O)NC(=O)[C@H](CO)NC(=O)[C@@H](NC(=O)[C@](C)(Cc1ccccc1)NC(=O)[C@@H](NC(=O)CNC(=O)[C@H](CCC(=O)O)NC(=O)C(C)(C)NC(=O)[C@@H](N)Cc1ccc(O)cc1)[C@@H](C)O)[C@@H](C)O)C(=O)N[C@@](C)(Cc1ccc(O)cc1)C(=O)N[C@@H](CC(C)C)C(=O)N[C@@H](CC(=O)O)C(=O)N[C@@H](CCCCN)C(=O)N[C@@H](CCC(N)=O)C(=O)N[C@@H](C)C(=O)N[C@@H](CCC(N)=O)C(=O)N[C@@H](C)C(=O)N[C@@H](CCC(=O)O)C(=O)N[C@@H](Cc1ccccc1)C(=O)N[C@H](C(=O)N[C@@H](CCCCN)C(=O)N[C@@H](Cc1c[nH]c2ccccc12)C(=O)N[C@@H](CC(C)C)C(=O)N[C@@H](CC(C)C)C(=O)N[C@@H](CCCCN)C(=O)NCC(=O)NCC(=O)N1CCC[C@H]1C(=O)N[C@@H](CO)C(=O)N[C@@H](CO)C(=O)NCC(=O)N[C@@H](C)C(=O)N1CCC[C@H]1C(=O)N1CCC[C@H]1C(=O)N1CCC[C@H]1C(=O)N[C@@H](CO)C(=O)N[C@@H](CCCCN)C(N)=O)C(C)C [Example 17] (H-Y[Aib]EGT[αMeF]TSDY[Aib]I[αMeY]LDKQAQAEFVKWLLKGGPSSGAPPPSK-NH2)	0.018 nM	0.014 nM	> 1000 nM	–	–	–
CC[C@H](C)[C@H](NC(=O)C(C)(C)NC(=O)[C@H](Cc1ccc(O)cc1)NC(=O)[C@H](CC(=O)O)NC(=O)[C@H](CO)NC(=O)[C@@H](NC(=O)[C@](C)(Cc1ccccc1)NC(=O)[C@@H](NC(=O)CNC(=O)[C@H](CCC(=O)O)NC(=O)C(C)(C)NC(=O)[C@@H](N)Cc1ccc(O)cc1)[C@@H](C)O)[C@@H](C)O)C(=O)NC(C)(C)C(=O)N[C@@H](CC(C)C)C(=O)N[C@@H](CC(=O)O)C(=O)N[C@@H](CCCCN)C(=O)N[C@@H](CCC(N)=O)C(=O)N[C@@H](C)C(=O)N[C@@H](CCC(N)=O)C(=O)N[C@@H](CO)C(=O)N[C@@H](CCC(=O)O)C(=O)N[C@@H](Cc1ccccc1)C(=O)N[C@H](C(=O)N[C@@H](CCCCN)C(=O)N[C@@H](Cc1c[nH]c2ccccc12)C(=O)N[C@@H](CC(C)C)C(=O)N[C@@H](CC(C)C)C(=O)N[C@@H](CCCCN)C(=O)NCC(=O)NCC(=O)N1CCC[C@H]1C(=O)N[C@@H](CO)C(=O)N[C@@H](CO)C(=O)NCC(=O)N[C@@H](C)C(=O)N1CCC[C@H]1C(=O)N1CCC[C@H]1C(=O)N1CCC[C@H]1C(=O)N[C@@H](CO)C(N)=O)C(C)C [Example 8] (H-Y[Aib]EGT[αMeF]TSDY[Aib]I[Aib]LDKQAQSEFVKWLLKGGPSSGAPPPS-NH2)	0.014 nM	0.008 nM	> 1000 nM	–	–	–
CC[C@H](C)[C@H](NC(=O)[C@H](C)NC(=O)[C@H](Cc1ccc(O)cc1)NC(=O)[C@H](CC(=O)O)NC(=O)[C@H](CO)NC(=O)[C@@H](NC(=O)[C@](C)(Cc1ccccc1)NC(=O)[C@@H](NC(=O)CNC(=O)[C@H](CCC(=O)O)NC(=O)C(C)(C)NC(=O)[C@@H](N)Cc1ccc(O)cc1)[C@@H](C)O)[C@@H](C)O)C(=O)NC(C)(C)C(=O)N[C@@H](CC(C)C)C(=O)N[C@@H](CC(=O)O)C(=O)N[C@@H](CCCCN)C(=O)N[C@@H](CCC(N)=O)C(=O)N[C@@H](C)C(=O)N[C@@H](CCC(N)=O)C(=O)N[C@@H](CO)C(=O)N[C@@H](CCC(=O)O)C(=O)N[C@@H](Cc1ccccc1)C(=O)N[C@H](C(=O)N[C@@H](CCCCN)C(=O)N[C@@H](Cc1c[nH]c2ccccc12)C(=O)N[C@@H](CC(C)C)C(=O)N[C@@H](CC(C)C)C(=O)N[C@@H](CCCCN)C(=O)NCC(=O)NCC(=O)N1CCC[C@H]1C(=O)N[C@@H](CO)C(=O)N[C@@H](CO)C(=O)NCC(=O)N[C@@H](C)C(=O)N1CCC[C@H]1C(=O)N1CCC[C@H]1C(=O)N1CCC[C@H]1C(=O)N[C@@H](CO)C(N)=O)C(C)C [Example 7] (H-Y[Aib]EGT[αMeF]TSDYAI[Aib]LDKQAQSEFVKWLLKGGPSSGAPPPS-NH2)	–	–	–	0.0088 nM	0.0069 nM	> 1000 nM
CC(C)C[C@H](NC(=O)[C@H](CC(C)C)NC(=O)[C@H](Cc1c[nH]c2ccccc12)NC(=O)[C@H](CCCCN)NC(=O)[C@@H](NC(=O)[C@H](Cc1ccccc1)NC(=O)[C@H](CCC(=O)O)NC(=O)[C@H](C)NC(=O)[C@H](CCC(N)=O)NC(=O)[C@H](C)NC(=O)[C@H](CCC(N)=O)NC(=O)[C@H](CCCCN)NC(=O)[C@H](CC(=O)O)NC(=O)[C@H](CC(C)C)NC(=O)[C@H](CC1CCCCC1)NC(=O)[C@H](CCCCN)NC(=O)C(C)(C)NC(=O)[C@H](Cc1ccc(O)cc1)NC(=O)[C@H](CC(=O)O)NC(=O)[C@H](CO)NC(=O)[C@@H](NC(=O)[C@](C)(Cc1ccccc1)NC(=O)[C@@H](NC(=O)CNC(=O)[C@H](CCC(=O)O)NC(=O)C(C)(C)NC(=O)[C@@H](N)Cc1ccc(O)cc1)[C@@H](C)O)[C@@H](C)O)C(C)C)C(=O)N[C@@H](CCCCN)C(=O)NCC(=O)NCC(=O)N1CCC[C@H]1C(=O)N[C@@H](CO)C(=O)N[C@@H](CO)C(=O)NCC(=O)N[C@@H](C)C(=O)N1CCC[C@H]1C(=O)N1CCC[C@H]1C(=O)N1CCC[C@H]1C(=O)N[C@@H](CO)C(=O)N[C@@H](CCCCN)C(N)=O [Example 16] (H-Y[Aib]EGT[αMeF]TSDY[Aib]K[Cha]LDKQAQAEFVKWLLKGGPSSGAPPPSK-NH2)	0.015 nM	0.0091 nM	> 1000 nM	–	–	–

From patent US9200051B2, “Peptide compound” (TAKEDA PHARMACEUTICAL COMPANY LIMITED, priority 2013, dated 2015)
